Measurements published in patent US4689344A, “Long-chain α,ω-dicarboxylic acids and derivatives thereof and pharmaceutical compositions containing them” (Epis S.A., priority 1981, dated 1987).
“And” between values parts separate entries of the source, which are not always exact repeats. Equal entries are not always repeated.

Legend:
serum lipoprotein = experiment: Serum lipoprotein profile; type: in vivo, rat
Description: (§1) Rats starved for 48 hours were fed a high carbohydrate, fat-free diet supplemented with 0.25% of the active compound of Example 5 for 3 days ad libitum.

[1] = system: GT of non-diabetic Psamomys; experiment: Effect on GT of non-diabetic Psamomys; type: in vivo
[2] = system: diabetes induced by steptozocin; experiment: Effect on diabetes induced by steptozocin in rats; type: in vivo, rat
liver triglyceride = experiment: Liver triglyceride content of rats fed carbohydrate-rich diet; type: in vivo, rat; conditions: for Reduction in liver triglyceride content (FIG. 4): carbohydrate-rich diet, compared to control group=100%
serum insulin = experiment: Serum insulin levels in diabetic Psamomys Obesus; type: in vivo; conditions: non-treated diabetic animals 40-200 uu/ml
[3] = system: oxidation of glucose, palmitate or acetate to CO2; experiment: Oxidation of glucose, palmitate or acetate to CO2 in vivo; design: species or system rat; conditions: rats, additional experiments
glucose tolerance = experiment: Glucose tolerance test (GTT) in diabetic Psamomys Obesus; type: in vivo; design: Sum of glucose values at 0, 1, 2, 3h, Treatment / Sum of glucose values at 0, 1, 2, 3h, Elimination of Treatment: unit not given here; conditions: for Sum of glucose values at 0, 1, 2, 3h, Treatment: 0.1% in diet 30-70 days; for Sum of glucose values at 0, 1, 2, 3h, Elimination of Treatment: after return to normal diet
Description: (§2) Psamomys Obesus were fed "Amrod 935" Purina Chow diet supplemented with 0.1% of the active compound of Example 4, ad libitum, for periods of 80 or 140 days. The biological effects of the active compound in vivo were evaluated as reported in the following experiments.
Six Psamomys Obesus fed Purina Chow diet ad libitum were selected for their diabetic trait by following their glucose tolerance test (GTT). The selected animals were then treated by feeding the same Purina diet supplemented with 0.1% of the active compound of Example 4 for periods varying between 30-70 days. The GTT was followed periodically throughout this period, as well as for 50 more days after the drug-supplemented diet had been replaced with the normal diet. A diagram of the GTT curves obtained with one representative animal is shown in FIG. 6 of the attached drawings. The GTT values for all six animals are shown in the following Table VIII as the sum of the glucose values observed at 0^h, 1^h, 2^h, 3^h.

LD50 in rats (p.o.) = conditions: rat, in vivo, po
[4] = system: liver total lipid, triglyceride and cholesterol; experiment: 3H2O incorporation into liver lipids in vivo (total lipid, triglyceride, cholesterol); design: species or system rat; conditions: n = 5
Description: ^3 H2 O incorporation into liver lipids in vico (in μmole/gr liver) was tested in rats fed for 3 days a single daily meal of a high carbohydrate diet containing 0.25% of the active compound of Example 4.
The procedure of Experiment I(b) was repeated for 5 days.
(§3) Rats that have previously been starved for 48 hours, were meal-fed or fed ad libitum a high carbohydrate, fat-free diet for 3-5 days, the diet being supplemented with the active compounds of formula (I) at dosages of 25-250 mg per Kg body weight per day. The biological effects in-vivo were evaluated by following the rate of incorporation of injected radioactive precursors (mainly ^3 H2 O) into liver and adipose tissue lipids and comparing the results observed with those obtained from groups of non-treated rats ("control groups"). Dose-response curves were plotted.

[5] = system: neutral fat in liver and adipose tissue and liver cholesterol; experiment: 3H2O incorporation into neutral fat in liver and adipose tissue and into liver cholesterol in vivo; design: species or system rat
Description: as §3
Incorporation of ^3 H2 O into neutral fat in liver and adipose tissue and into liver cholesterol in vivo.
^3 H2 O incorporation into liver and adipose tissue lipids in vivo was tested in rats fed a high carbohydrate diet ad libitum for three days, supplemented with varying proportions (in percent of the diet) of the active compounds of Examples 4, 5 and 9. ^3 H2 O was then administered to the animals and the rates of incorporation of tritium (in μmole/gr/60 min) into various lipid fractions in liver and adipose tissue were determined and compared to the tritium incorporation under identical conditions in the control groups of rats.

[6] = Body weight of Psamomys Obesus; type: in vivo; conditions: Table VII; for Weight gain (gr) average: 0.1% in diet
Description: as §2
The above experiment was repeated with groups of young and old Psamomys and the body weight determined.

serum lipids [7] = experiment: Serum triglyceride and cholesterol levels in Psamomys Obesus; type: in vivo; conditions: Table VI, young animals, 0.1% in diet, 140 days, n = 7
Description: as §2
Groups of young and old Psamomys were fed the above described diet for 140 and 80 days, respectively, whereafter the serum triglyceride and cholesterol levels were determined.

serum lipids [8] = experiment: Serum lipids in rats fed high carbohydrate, fat-free diet; type: in vivo, rat
Description: as §3
The hypolipidemic effect was followed by measuring the triglycerides and cholesterol content in serum of treated rats as compared to non-treated rats.
Rats starved for 48 hours were fed a high carbohydrate, fat-free diet ad libitum for 3 or 5 days, supplemented with the active compound of Example 4 at the proportions shown in the following Table III. The serum lipids were determined in the treated rats and compared to a non-treated control group.
as §1

For `CC(C)(CCCCCCCCCCC(C)(C)CC(=O)O)CC(=O)O` [Example 4, 3,3,14,14-Tetramethyl-hexadecane-1,16-dioic acid], the “Change in the serum lipoprotein profile” value (serum lipoprotein; summary, rats) was “significant change in the serum lipoprotein profile”, the “Effect on GT of non-diabetic Psamomys” value [1] was “affects neither” and the “Effect on diabetes induced by steptozocin” value [2] was “affects neither”. The “Reduction in liver triglyceride content (FIG. 4)” value (“Reduction” for short) (liver triglyceride) was “reduction in liver triglyceride content”, the “Decrease in the triglyceride content of the liver” value (liver triglyceride; summary, rats) was 30-50% and the “Serum insulin levels during the treatment period” value (serum insulin) was “lower than 40 uu/ml”. For the same molecule, the “Oxidation of glucose, palmitate or acetate to CO2 in vivo” value [3] was “does not affect”, the “Correction of the GTT curve” value (glucose tolerance; 0.1% in diet, 30-70 days) was “correction of the GTT curve in 5 or 6 test animals” and the “Sum of glucose values at 0, 1, 2, 3h, Treatment” value (“Sum … 3h, Treatment” below) (glucose tolerance; Psamomys I, pretreatment 779, 1082) was 364. The “Sum … 3h, Treatment” value (glucose tolerance; Psamomys II, pretreatment 947, 980, 958) was 442, the “Sum … 3h, Treatment” value (glucose tolerance; Psamomys III, pretreatment 790) was 296 and 329 and 326 and the “Sum of glucose values at 0, 1, 2, 3h, Elimination of Treatment” value (“Sum of glucose values … of Treatment” below) (glucose tolerance; Psamomys III) was 849. For the same molecule, the “Sum … 3h, Treatment” value (glucose tolerance; Psamomys IV, pretreatment 992) was 358 and 336 and 465, the “Sum of glucose values … of Treatment” value (glucose tolerance; Psamomys IV) was 1049 and the “Sum … 3h, Treatment” value (glucose tolerance; Psamomys V, pretreatment 867) was 434 and 257 and 388. For the same molecule, the “Sum of glucose values … of Treatment” value (glucose tolerance; Psamomys V) was 470, the “Sum … 3h, Treatment” value (glucose tolerance; Psamomys VI, pretreatment 717) was 555 and the “Diabetic trait after termination of the treatment” value (glucose tolerance; after termination of the treatment) was “revert to their original diabetic trait”. For the same molecule, the LD50 (LD50 in rats (p.o.)) was greater than 7000 mg/kg, the “3H2O incorporation into liver cholesterol” value ([4]; Table I, 3 days, single daily meal, 0.25% in high carbohydrate diet, non-treated 2.7 ± 1.1) was 0.8 ± 0.2 μmole/gr liver and the “3H2O incorporation into liver triglyceride” value ([4]; Table I, 3 days, single daily meal, 0.25% in high carbohydrate diet, non-treated 107 ± 21) was 19 ± 2 μmole/gr liver. The “3H2O incorporation into liver total lipid” value ([4]; Table I, 3 days, single daily meal, 0.25% in high carbohydrate diet, non-treated 157 ± 34) was 47 ± 5 μmole/gr liver, the “3H2O incorporation into liver cholesterol” value ([4]; Table II, 5 days, procedure of Experiment I(b), non-treated 2.8 ± 0.8) was 1.4 ± 0.4 μmole/gr liver and the “3H2O incorporation into liver triglyceride” value ([4]; Table II, 5 days, procedure of Experiment I(b), non-treated 71 ± 12) was 20 ± 7 μmole/gr liver. The “3H2O incorporation into liver total lipid” value ([4]; Table II, 5 days, procedure of Experiment I(b), non-treated 107 ± 18) was 53 ± 13 μmole/gr liver, the “Inhibition of in vivo incorporation of 3H2O into cholesterol in liver” value ([5]; 100 mg/Kg body wt/day) was 50% and the “Inhibition of in vivo incorporation of 3H2O into neutral fat (diglycerides, triglycerides) in liver” value ([5]; 100 mg/Kg body wt/day) was 50%. The “Inhibition of in vivo incorporation of 3H2O into cholesterol in liver” value ([5]; 250 mg/Kg body wt/day) was 80%, the “Inhibition of in vivo incorporation of 3H2O into neutral fat (diglycerides, triglycerides) in liver” value ([5]; 250 mg/Kg body wt/day) was 80% and the “In vivo incorporation of 3H2O into neutral fat in adipose tissue” value ([5]; adipose tissue) was “block”. The “Weight gain (gr) average” value ([6]; old animals, initial 254 ± 52, non-treated gain 11 ± 13) was -26 ± 8 gr, the “Weight gain (gr) average” value ([6]; young animals, n = 7, initial 92 ± 19, non-treated gain 57 ± 33) was 36 ± 12 gr and the “Weight gain (gr)” value ([6]; young animals, individual values, non-treated 38, 38, 40, 55, 116) was 25 gr and 29 gr and 31 gr and 32 gr and 33 gr and 38 gr and 62 gr. The “Siblings' weight grain (gr)” value ([6]; young animals, siblings a, non-treated sibling 55) was 25 gr and 33 gr, the “Siblings' weight grain (gr)” value ([6]; young animals, siblings b, non-treated sibling 116) was 31 gr and 38 gr and the Serum cholesterol (serum lipids [7]; non-treated 65 ± 7) was 46 ± 7 mg %. It also gave a Serum triglycerides (serum lipids [7]; non-treated 205 ± 29) of 62 ± 15 mg %, a Serum triglycerides (serum lipids [8]; Table III, 0.06% of diet, ad libitum 3 or 5 days, n = 5, non-treated 41 ± 6) of 15 ± 4 mg % and a Serum cholesterol (serum lipids [8]; Table III, 0.06% of diet, ad libitum 3 or 5 days, n = 5, non-treated 64 + 10) of 38 ± 5 mg %. For the same molecule, the Serum triglycerides (serum lipids [8]; Table III, 0.15% of diet, ad libitum 3 or 5 days, n = 5, non-treated 41 ± 6) was 21 ± 4 mg %, the Serum cholesterol (serum lipids [8]; Table III, 0.15% of diet, ad libitum 3 or 5 days, n = 5, non-treated 64 + 10) was 32 ± 5 mg % and the Serum triglycerides (serum lipids [8]; Table III, 0.25% of diet, ad libitum 3 or 5 days, n = 5, non-treated 41 ± 6) was 15 ± 4 mg %. The Serum cholesterol (serum lipids [8]; Table III, 0.25% of diet, ad libitum 3 or 5 days, n = 5, non-treated 64 + 10) was 31 ±3 mg %, the “Decrease in serum cholesterol” value (serum lipids [8]; summary, rats) was 50% and the “Decrease in serum glycerides” value (serum lipids [8]; summary, rats) was “up to 60%”.

With `CC(C)(CCCCCCCCCCCCC(C)(C)CC(=O)O)CC(=O)O` [Example 5, 3,3,16,16-Tetramethyl-octadecane-1,18-dioic acid] the “HDL (VLDL + LDL)” value (serum lipoprotein; Table V, 0.25% of diet, 3 days, non-treated 1.05) was 1.50, the LDL cholesterol (serum lipoprotein; Table V, 0.25% of diet, 3 days, non-treated 19.00) was 6.00 mg % and the VLDL cholesterol (serum lipoprotein; Table V, 0.25% of diet, 3 days, non-treated 23.00) was 10.00 mg %. The HDL cholesterol (serum lipoprotein; Table V, 0.25% of diet, 3 days, non-treated 43.00) was 24.00 mg %, the “Reduction” value (liver triglyceride) was “reduction in liver triglyceride content” and the Serum triglycerides (serum lipids [8]; Table IV, 0.25% of diet, 3 days ad libitum, n = 9, non-treated 48 ± 6) was 33 ± 3 mg %. It also gave a Serum cholesterol (serum lipids [8]; Table IV, 0.25% of diet, 3 days ad libitum, n = 12, non-treated 80 ± 12) of 40 ± 11 mg %.

In the case of `CC(C)(CCCCCCCCCCC(C)(C)C(Br)C(=O)O)C(Br)C(=O)O` (centres unmarked) [Example 9, 2,15-Dibromo-3,3,14,14-tetramethyl-hexadecane-1,16-dioic acid], the “Reduction” value (liver triglyceride) is reported as “reduction in liver triglyceride content”.
